Values of other authors in US12642772B2, “Triptolide formulations” (MINNEAMRITA THERAPEUTICS LLC, priority 2024, dated 2026).

## CC(C)[C@]12O[C@H]1[C@@H]1O[C@]13[C@]1(O[C@H]1C[C@H]1C4=C(CC[C@@]13C)C(=O)OC4)[C@@H]2O [triptolide, Triptolide]
  solubility in water: approximately 0.017 mg/mL
